Structures are written as SMILES.

The test system of the first assay is primary human fibroblasts derived from IPF patients (LL29 cells) treated with TGF-β1; α-smooth muscle actin (αSMA). The assay can be described thus: Inhibition of the fibrotic process: αSMA staining in TGF-β1 treated primary human fibroblasts from IPF patients (LL29 cells). It is filed as cell-based. The settings on record: Fibroblast, 96 h, TGF-β1 20 ng/mL, 4 days, % cells positive for αSMA. The procedure, abridged:
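LL29 cells plated in F12 with 1% FBS, compounds added as 11-point 1:2 series (10 μM to 1.87 nM, 0.1% DMSO), then TGF-β1 20 ng/mL; 4 days at 37 °C. Fixed, αSMA immunostained, imaged; SYTOX-positive cells excluded. % αSMA-positive cells normalized to TGF-β1 wells; EC50 by non-linear regression, or % inhibition at 10 μM.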
For orientation: EC50 means the concentration giving half of the maximal effect. Lower therefore signals an effect from little substance. For `Cc1ccncc1-c1cc2c(-c3cc4c(-c5cccc(F)c5)cccc4[nH]3)n[nH]c2cn1` [Compound 5, 3-(4-(3-Fluorophenyl)-1H-indol-2-yl)-5-(4-methylpyridin-3-yl)-1H-pyrazolo [3,4-c]pyridine], it took 605 nM to reach a half-maximal effect (EC50).

In turn, `O=C(Nc1cncc(-c2cc3c(-c4cc5c(-c6cccc(F)c6)cccc5[nH]4)n[nH]c3cn2)c1)c1ccccc1` [Compound 11, N-(5-(3-(4-(3-Fluorophenyl)-1H-indol-2-yl)-1H-pyrazolo[3,4-c]pyridin-5-yl)pyridin-3-yl)benzamide] gave an EC50 of 873 nM.

`O=C(Nc1cncc(-c2cc3c(-c4cc5c(-c6cccc(F)c6)cccc5[nH]4)n[nH]c3cn2)c1)C1CCC1` [Compound 21, N-(5-(3-(4-(3-Fluorophenyl)-1H-indol-2-yl)-1H-pyrazolo[3,4-c]pyridin-5-yl)pyridin-3-yl)cyclobutanecarboxamide]: the midpoint of the response, the EC50, lay at 1700 nM.

On to `CC(C)CC(=O)Nc1cncc(-c2cc3c(-c4cc5c(-c6ccc(F)cc6)cccc5[nH]4)n[nH]c3cn2)c1` [Compound 30, N-(5-(3-(4-(4-Fluorophenyl)-1H-indol-2-yl)-1H-pyrazolo[3,4-c]pyridin-5-yl)pyridin-3-yl)-3-methylbutanamide], for which the EC50 stood at 2280 nM.

Turning to `O=C(Cc1ccccc1)Nc1cncc(-c2cc3c(-c4cc5c(-c6ccc(F)cc6)cccc5[nH]4)n[nH]c3cn2)c1` [Compound 38, N-(5-(3-(4-(4-Fluorophenyl)-1H-indol-2-yl)-1H-pyrazolo[3,4-c]pyridin-5-yl)pyridin-3-yl)-2-phenylacetamide], the concentration for a half-maximal effect (EC50) is 659 nM.

Turning to `O=C(Nc1cncc(-c2cc3c(-c4cc5c(-c6ccc(F)cc6)cccc5[nH]4)n[nH]c3cn2)c1)C1CCCCC1` [Compound 51, N-(5-(3-(4-(4-Fluorophenyl)-1H-indol-2-yl)-1H-pyrazolo[3,4-c]pyridin-5-yl)pyridin-3-yl)cyclohexanecarboxamide], the EC50 is 809 nM.

`Fc1ccc(-c2cccc3[nH]c(-c4n[nH]c5cnc(-c6cncnc6)cc45)cc23)cc1` [Compound 55, 3-(4-(4-Fluorophenyl)-1H-indol-2-yl)-5-(pyrimidin-5-yl)-1H-pyrazolo[3,4-c]pyridine] had an EC50 of 2660 nM.

Regarding `CC(C)C(=O)Nc1cncc(-c2cc3c(-c4cc5c(-c6ccccc6F)cccc5[nH]4)n[nH]c3cn2)c1` [Compound 65, N-(5-(3-(4-(2-Fluorophenyl)-1H-indol-2-yl)-1H-pyrazolo[3,4-c]pyridin-5-yl)pyridin-3-yl)isobutyramide], the midpoint of the response, the EC50, lay at 1110 nM.

`CCCCC(=O)Nc1cncc(-c2cc3c(-c4cc5c(-c6ccccc6F)cccc5[nH]4)n[nH]c3cn2)c1` [Compound 75, N-(5-(3-(4-(2-Fluorophenyl)-1H-indol-2-yl)-1H-pyrazolo[3,4-c]pyridin-5-yl)pyridin-3-yl)pentanamide] came in with an EC50 of 2030 nM.

`O=C(Nc1cncc(-c2cc3c(-c4cc5c(-c6ccccc6F)cccc5[nH]4)n[nH]c3cn2)c1)C1CC1` [Compound 76, N-(5-(3-(4-(2-Fluorophenyl)-1H-indol-2-yl)-1H-pyrazolo[3,4-c]pyridin-5-yl)pyridin-3-yl)cyclopropanecarboxamide] returned an EC50 of 307 nM.

For the compound `Cc1ccncc1-c1cc2c(-c3cc4c(-c5ccncc5)cccc4[nH]3)n[nH]c2cn1` [Compound 117, 5-(4-Methylpyridin-3-yl)-3-(4-(pyridin-4-yl)-1H-indol-2-yl)-1H-pyrazolo [3,4-c]pyridine], the EC50 was 1040 nM.

The compound `CC(C)(C)C(=O)Nc1cncc(-c2cc3c(-c4cc5c(-c6ccncc6)cccc5[nH]4)n[nH]c3cn2)c1` [Compound 120, N-(5-(3-(4-(Pyridin-4-yl)-1H-indol-2-yl)-1H-pyrazolo[3,4-c]pyridin-5-yl)pyridin-3-yl)pivalamide] registered an EC50 of 1030 nM.

For `CC(C)(C)CC(=O)Nc1cncc(-c2cc3c(-c4cc5c(-c6ccncc6)cccc5[nH]4)n[nH]c3cn2)c1` [Compound 128, 3,3-Dimethyl-N-(5-(3-(4-(pyridin-4-yl)-1H-indol-2-yl)-1H-pyrazolo[3,4-c]pyridin-5-yl)pyridin-3-yl)butanamide], the EC50 is more than 10000 nM.

The compound `O=C(Nc1cncc(-c2cc3c(-c4cc5c(-c6ccncc6)cccc5[nH]4)n[nH]c3cn2)c1)C1CCC1` [Compound 133, N-(5-(3-(4-(Pyridin-4-yl)-1H-indol-2-yl)-1H-pyrazolo[3,4-c]pyridin-5-yl)pyridin-3-yl)cyclobutanecarboxamide] came in with an EC50 of 391 nM.

With `c1cc(-c2ccncc2)c2cc(-c3n[nH]c4cnc(-c5cncnc5)cc34)[nH]c2c1` [Compound 139, 3-(4-(Pyridin-4-yl)-1H-indol-2-yl)-5-(pyrimidin-5-yl)-1H-pyrazolo[3,4-c]pyridine], the EC50 is 238 nM.

For the compound `O=C(Nc1cncc(-c2cc3c(-c4cc5c(N6CCCCC6)cccc5[nH]4)n[nH]c3cn2)c1)C1CC1` [Compound 188, N-(5-(3-(4-(Piperidin-1-yl)-1H-indol-2-yl)-1H-pyrazolo[3,4-c]pyridin-5-yl)pyridin-3-yl)cyclopropanecarboxamide], the EC50 is 1370 nM.

Compound `FC1(F)CCN(Cc2cncc(-c3cc4c(-c5cc6c(N7CCCCC7)cccc6[nH]5)n[nH]c4cn3)c2)C1` [Compound 194, 5-(5-((3,3-Difluoropyrrolidin-1-yl)methyl)pyridin-3-yl)-3-(4-(piperidin-1-yl)-1H-indol-2-yl)-1H-pyrazolo[3,4-c]pyridine] had an EC50 of 694 nM.

`CN1CCN(c2cccc3[nH]c(-c4n[nH]c5cnc(-c6cncc(NC(=O)C7CCC7)c6)cc45)cc23)CC1` [Compound 245] returned an EC50 of 4610 nM.

As for `CC(C)(C)CC(=O)Nc1cncc(-c2cc3c(-c4cc5ccccc5[nH]4)n[nH]c3cn2)c1` [Compound 268, N-(5-(3-(1H-Indol-2-yl)-1H-pyrazolo[3,4-c]pyridin-5-yl)pyridin-3-yl)-3,3-dimethylbutanamide], the EC50 is 9980 nM.

The compound `O=C(Nc1cncc(-c2cc3c(-c4cc5ccccc5[nH]4)n[nH]c3cn2)c1)C1CCCCC1` [Compound 275, N-(5-(3-(1H-Indol-2-yl)-1H-pyrazolo[3,4-c]pyridin-5-yl)pyridin-3-yl) cyclohexanecarboxamide] returned a 50% effective concentration (EC50) of 3270 nM.

On to `CS(=O)(=O)NCc1cc(F)cc(-c2cccc3[nH]c(-c4n[nH]c5cnc(-c6cncc(NC(=O)c7ccccc7)c6)cc45)cc23)c1` [Compound 487, N-(5-(3-(4-(3-Fluoro-5-(methylsulfonamidomethyl)phenyl)-1H-indol-2-yl)-1H-pyrazolo[3,4-c]pyridin-5-yl)pyridin-3-yl)benzamide], for which the EC50 is 5010 nM.

`Nc1cncc(-c2cc3c(-c4cc5ncccc5[nH]4)n[nH]c3cn2)c1` [Compound 507, 5-(3-(1H-Pyrrolo[3,2-b]pyridin-2-yl)-1H-pyrazolo[3,4-c]pyridin-5-yl) pyridin-3-amine] showed a concentration for a half-maximal effect (EC50) of more than 10000 nM.

The compound `c1cnc2cc(-c3n[nH]c4cnc(-c5cncc(CNCC6CCCC6)c5)cc34)[nH]c2c1` [Compound 529, 1-(5-(3-(1H-Pyrrolo[3,2-b]pyridin-2-yl)-1H-pyrazolo[3,4-c]pyridin-5-yl)pyridin-3-yl)-N-(cyclopentylmethyl)methanamine] yielded an EC50 of more than 10000 nM.

With `Fc1ccccc1-c1cccc2[nH]c(-c3n[nH]c4cnc(-c5cn[nH]c5)cc34)cc12` [Compound 567, 3-(4-(2-Fluorophenyl)-1H-indol-2-yl)-5-(1H-pyrazol-4-yl)-1H-pyrazolo[3,4-c]pyridine], the EC50 was 27 nM.

`c1cc(N2CCCCC2)c2cc(-c3n[nH]c4cnc(-c5cncc(OC6CCCCC6)c5)cc34)[nH]c2c1` [Compound 635, 5-(5-(Cyclohexyloxy)pyridin-3-yl)-3-(4-(piperidin-1-yl)-1H-indol-2-yl)-1H-pyrazolo[3,4-c]pyridine] returned an EC50 of 1320 nM.

Regarding `c1cc(-c2ccoc2)c2cc(-c3n[nH]c4cnc(-c5cn[nH]c5)cc34)[nH]c2c1` [Compound 711, 3-(4-(Furan-3-yl)-1H-indol-2-yl)-5-(1H-pyrazol-4-yl)-1H-pyrazolo[3,4-c]pyridine], the EC50 was 125 nM.

As to `c1csc(-c2cccc3[nH]c(-c4n[nH]c5cnc(C6CCNCC6)cc45)cc23)c1` [Compound 725, 5-(Piperidin-4-yl)-3-(4-(thiophen-2-yl)-1H-indol-2-yl)-1H-pyrazolo[3,4-c]pyridine], the EC50 was more than 10000 nM.

On to `Cn1cc(-c2cc3c(-c4cc5ncccc5[nH]4)n[nH]c3cn2)cn1` [Compound 1022, 5-(1-Methyl-1H-pyrazol-4-yl)-3-(1H-pyrrolo[3,2-b]pyridin-2-yl)-1H-pyrazolo[3,4-c]pyridine], for which the EC50 is more than 10000 nM.

Take `CN(C)CCOc1cncc(-c2cc3c(-c4cc5ncccc5[nH]4)n[nH]c3cn2)c1` [Compound 1029, 2-((5-(3-(1H-Pyrrolo[3,2-b]pyridin-2-yl)-1H-pyrazolo[3,4-c]pyridin-5-yl)pyridin-3-yl)oxy)-N,N-dimethylethan-1-amine]: the EC50 came to 1720 nM.

The same assay, now with this note: Fibroblast, 96 h, TGF-β1 20 ng/mL, 4 days, αSMA, 10 μM, read-out: percent inhibition at 10 μM (given for EC50 of >10 μM).
The inhibition is the percentage by which the read-out fell short of the control. With `CC(C)(C)CC(=O)Nc1cncc(-c2cc3c(-c4cc5c(-c6ccncc6)cccc5[nH]4)n[nH]c3cn2)c1` [Compound 128, 3,3-Dimethyl-N-(5-(3-(4-(pyridin-4-yl)-1H-indol-2-yl)-1H-pyrazolo[3,4-c]pyridin-5-yl)pyridin-3-yl)butanamide], the inhibition at 10 µM was determined as 23.7%.

With `Nc1cncc(-c2cc3c(-c4cc5ncccc5[nH]4)n[nH]c3cn2)c1` [Compound 507, 5-(3-(1H-Pyrrolo[3,2-b]pyridin-2-yl)-1H-pyrazolo[3,4-c]pyridin-5-yl) pyridin-3-amine], the inhibition at 10 µM was 0%.

Turning to `c1cnc2cc(-c3n[nH]c4cnc(-c5cncc(CNCC6CCCC6)c5)cc34)[nH]c2c1` [Compound 529, 1-(5-(3-(1H-Pyrrolo[3,2-b]pyridin-2-yl)-1H-pyrazolo[3,4-c]pyridin-5-yl)pyridin-3-yl)-N-(cyclopentylmethyl)methanamine], the inhibition at 10 µM worked out at 0%.

For the compound `c1csc(-c2cccc3[nH]c(-c4n[nH]c5cnc(C6CCNCC6)cc45)cc23)c1` [Compound 725, 5-(Piperidin-4-yl)-3-(4-(thiophen-2-yl)-1H-indol-2-yl)-1H-pyrazolo[3,4-c]pyridine], the inhibition at 10 µM turned out to be 4.5%.

As for `Cn1cc(-c2cc3c(-c4cc5ncccc5[nH]4)n[nH]c3cn2)cn1` [Compound 1022, 5-(1-Methyl-1H-pyrazol-4-yl)-3-(1H-pyrrolo[3,2-b]pyridin-2-yl)-1H-pyrazolo[3,4-c]pyridine], the inhibition at 10 µM was 44.5%.

The values above are taken from US10166218B2, “3-(1H-indol-2-yl)-1H-pyrazolo[3,4-C]pyridines and therapeutic uses thereof” (Samumed, LLC, priority 2015, dated 2019).
